Where “and” joins values, the source holds several entries; their conditions need not be identical. Equal entries are not always repeated. Entries after “also recorded” stand apart in the source; their conditions may differ.
Tests used:
[1] = Ice recrystallization inhibition (IRI) "splat" assay; conditions: for IRI activity: splat assay, 30 min incubation at -8° C., 12.5-100 mM; for %MLGS compared with PEG: at 40 mg/mL
Experimental: Ice recrystallization inhibition (IRI) activity of bile salts. NaC, NaDC, NaCC, and NaLC were tested for IRI activity at concentrations of 12.5, 25.0, 50.0, and 100 mM in 1x PBS using the “splat” assay test known and described in Knight, C. A.; Hallett, J.; Devries, A. L., “Solute effects on ice recrystallization: An assessment technique,” Cryobiology 1988, 25 (1), 55-60, which is incorporated herein by reference. 100 mM NaLC was not tested due to its gelation. A droplet of the sample was gently squeezed out of a syringe with a 21-gauge needle from Exelint, Redondo Beach, CA, and was dripped from 1.4 m above onto a microscope slide sitting on a metal block surrounded by dry ice. Upon hitting the slide surface, the droplet instantaneously froze into an ice wafer. The ice wafer was immediately transferred into the chamber of a cryostage system from Instec, Boulder, CO, for incubation. Pictures were taken after 30 min incubation at -8° C. by a BX51 polarized microscope from Olympus, Tokyo, Japan, equipped with a DP70 camera from Olympus. PEG was tested as a negative control at concentrations of 5, 10, 20, and 40 mg/mL in 1x PBS to match the mass concentrations (w/v) of bile salts. PVA was tested as a positive control at low concentrations, including 0.05, 0.10, 0.20, and 0.40 mg/mL in 1x PBS, because of its high IRI activity. The largest lengths of the five largest ice crystals in one picture were measured by Image J software from National Institutes of Health, Bethesda, MD. Each sample was performed in triplicate. Each replication had five pictures randomly selected, representing a total of 75 ice crystals for each sample. The percent mean largest grain size (%MLGS) was calculated by averaging three replications divided by the blank. Data are reported as the mean ± standard derivation of three replications. The %MLGS calculations are plotted in FIG. 3 against the concentrations of the bile acids and the controls.

[2] = Optical photos of bile salt solutions as a function of temperature, with crossed polarized filters; type: physicochemical; conditions: 25 mM in PBS; for liquid crystal phase: all temperatures, crossed polarized filter; for appearance of solution: temperatures from 90° C. to -15° C.
Experimental: (§1) Viscosity profiles, critical micelle concentration (CMC), and optical photos of bile salts. The critical micelle concentration of a colloid or surfactant is the concentration of surfactant above which micelles form, and any additional surfactant added to the system will form micelles. The viscosity profile of NaC, NaDC, NaCC, and NaLC at a concentration of 25 mM in 1x PBS were determined by an AR2000 rheometer from TA Instruments in New Castle, PA, with a 40 mm aluminum parallel plate at 25° C. The samples were measured from 0.1 to100 s^-1 shear rate after pre-shearing at 50 s^-1 for 30 seconds with or without an equilibrium time of 30 min. The CMCs were determined by a UV-vis spectroscopy method with slight modifications described in Reis, S.; Moutinho, C. G.; Matos, C.; de Castro, B.; Gameiro, P.; Lima, J. L., “Noninvasive methods to determine the critical micelle concentration of some bile acid salts,” Anal Biochem 2004, 334 (1), 117-26, which is incorporated herein by reference. NaC, NaDC, and NaCC were dissolved in water at concentrations from 1 to 25 mM. The absorbance spectra from 200 to 300 nm were collected by an Evolution 201 spectrometer from Thermo Scientific, Waltham, MA to find the peak absorbance. The CMC was determined from the sudden change of peak absorbance as concentration increases. The optical photos of bile salt in 1X PBS solutions were taken after incubation at each designed temperature for 20 minutes.

[3] = Viscosity profile by rheometer / gel formation; type: physicochemical; conditions: for viscosity: 25 mM in 1x PBS, 25° C.
Experimental: as §1

[4] = Ice recrystallization inhibition (IRI) "splat" assay; conditions: concentrations close to or below literature CMC value, PBS (FIG. 6D)
[5] = Atomic force microscopy (AFM) analysis of bile salt solutions; type: physicochemical; conditions: 25 mM sample, dried on mica
Experimental: Atomic force microscopy (AFM) analysis of bile salt solutions. The AFM procedure was followed as set forth in Schefer, L.; Adamcik, J.; Diener, M.; Mezzenga, R., “Supramolecular chiral self-assembly and supercoiling behavior of carrageenans at varying salt conditions,” Nanoscale 2015, 7 (39), 16182-16188, which is incorporated herein by reference. Briefly, 0.01% (v/v) APTES in water was incubated on a freshly peeled mica surface for 1 min. APTES solution was then washed away using water on a P6700 spin coater from Specialty Coating Systems Inc., Indianapolis, IN, at 2,000 rpm. About 200 µL of 25 mM sample was loaded on the mica surface and incubated for 30 seconds. Then the mica was rinsed with 1.0 mL water drop-wise and dried in a vacuum chamber at room temperature. All mica surfaces were observed by a Multimode VIII AFM from Bruker, Santa Barbara, USA, in ScanAsyst-Air mode. All images were flattened using Nanoscope Analysis software from Bruker, Santa Barbara, USA, before analyzing by an ImageJ instrument from National Institutes of Health, Bethesda, MD.

[6] = Ice growth kinetics of NaLC; conditions: 1x PBS, -8° C., up to 60 min
Experimental: Ice growth kinetics of NaLC. The ice growth kinetics in the presence of NaLC at 12.5, 25, and 50 mM was determined at -8° C. in 1x PBS. Five pictures were taken every 5 min for a total time of 60 min. %MLGS at each time was calculated against its blank control at the same time.

| Compound | IRI activity ([1]; 1x PBS) | temperature at which ices were formed [2] [°C] | liquid crystal phase [2] | appearance of solution [2] | %MLGS compared with PEG ([1]; 1x PBS, 30 min at -8° C.) | gel formation ([3]; 100 mM, after sample preparation) | viscosity ([3]; fresh-prepared) | IRI activity (%MLGS) [4] | helical structure by AFM [5] | helix length [5] [µm] | helix turn [5] [µm] | helix width [5] [µm] | ice growth ([6]; 12.5 mM) | ice growth ([6]; 25.0 mM) | ice growth ([6]; 50.0 mM) | ice crystal size compared to blank 1x PBS and negative control PEG ([1]; 10 mg/mL (25 mM), 30 min at -8° C.) | ice crystal sizes compared with positive control PVA ([1]; 10 mg/mL NaLC, 1x PBS, 30 min at -8° C.) | concentration at which IRI active ([1]; 1x PBS, 30 min at -8° C.) | viscosity ([3]; after 30-min equilibrium) |
| --- | --- | --- | --- | --- | --- | --- | --- | --- | --- | --- | --- | --- | --- | --- | --- | --- | --- | --- | --- |
| C[C@H](CCC(=O)[O-])[C@H]1CC[C@H]2[C@@H]3[C@H](O)C[C@@H]4C[C@H](O)CC[C@]4(C)[C@H]3C[C@H](O)[C@]12C.[Na+] [NaC, sodium cholate] | not IRI active | -15 | no liquid crystal phase was observed | clear |  |  |  |  |  |  |  |  |  |  |  |  |  |  |  |
| C[C@H](CCC(=O)[O-])[C@H]1CC[C@H]2[C@@H]3[C@H](O)C[C@@H]4C[C@H](O)CC[C@]4(C)[C@H]3CC[C@]12C.[Na+] [NaCC, sodium chenodeoxycholate] | weak ice recrystallization inhibitor | -15 | no liquid crystal phase was observed | clear | smaller %MLGS values than PEG |  |  |  |  |  |  |  |  |  |  |  |  |  |  |
| C[C@H](CCC(=O)[O-])[C@H]1CC[C@H]2[C@@H]3CC[C@@H]4C[C@H](O)CC[C@]4(C)[C@H]3CC[C@]12C.[Na+] [NaLC, sodium lithocholate] | relatively potent IRI; also recorded: most potent ice recrystallization inhibitor |  |  | turbid |  | gel was formed | highest viscosity among four bile salts | No IRI activity was observed | helical structure | 1.72 ± 0.37 | 0.19 ± 0.04 | 0.14 ± 0.01 | IRI active but did not stop the ice growth completely | completely stopped the growth of ice crystals; also recorded: block the growth of ice crystals | completely stopped the growth of ice crystals | significantly smaller ice crystals | comparable to those in the positive control of 1 mg/mL PVA | around 10 mg/mL and ~25 mM |  |
| sodium deoxycholate [NaDC] | weak ice recrystallization inhibitors |  |  | clear | smaller %MLGS values than PEG |  |  |  |  |  |  |  |  |  |  |  |  |  | increased significantly to a level similar to that of NaLC |

— patent publication US20230320345A1, “METHODS AND COMPOSITIONS FOR INHIBITING ICE RECRYSTALLIZATION” (UNIVERSITY OF TENNESSEE RESEARCH FOUNDATION, priority 2022, published 2023)
